Species: Rattus norvegicus
Assay: Open TG-GATES - Regimen: Daily Repeat
Format: toxicity, organism-based, Sprague-Dawley
Parameters: regimen Daily Repeat, gender Male, age 6 weeks
Settings: in vivo, po, 50 mg/kg, route gavage, dose level Low; for APTT / Bas / Eos / Fbg / Hb / Ht / Lym / MCH / MCHC / MCV / Mono / Neu / PT / Plat / RBC / Ret / WBC: tissue Blood; for KIDNEY_L / KIDNEY_R / KIDNEY_TOTAL: tissue Kidney; for LIVER: tissue Liver; for A/G / ALP / ALT / AST / BUN / CRE / Ca / Cl / DBIL / GLC / IP / K / LDH / Na / PL / RALB / TBIL / TC / TG / TP / gamma-GTP: tissue Plasma

CN1C(=O)OC(C)(C)C1=O [TRIMETHADIONE]
TERMINAL_BW (72 h, time 3 day): 239.4 g | APTT (72 h, time 3 day): 17.8 s | Bas (72 h, time 3 day): 0% | Eos (72 h, time 3 day): 1% | Fbg (72 h, time 3 day): 290.4 mg/dL | Hb (72 h, time 3 day): 13.8 g/dL | Ht (72 h, time 3 day): 41% | Lym (72 h, time 3 day): 74.8% | MCH (72 h, time 3 day): 21.2 pg | MCHC (72 h, time 3 day): 33.6% | MCV (72 h, time 3 day): 63.2 fL | Mono (72 h, time 3 day): 3% | Neu (72 h, time 3 day): 20.8% | PT (72 h, time 3 day): 13 s | Plat (72 h, time 3 day): 127.3 x10_4/uL | RBC (72 h, time 3 day): 649 x10_4/ul | Ret (72 h, time 3 day): 6.9% | WBC (72 h, time 3 day): 101.6 x10_2/uL | KIDNEY_L (72 h, time 3 day): 1 g | KIDNEY_R (72 h, time 3 day): 1 g | KIDNEY_TOTAL (72 h, time 3 day): 2 g | LIVER (72 h, time 3 day): 11.2 g | A/G (72 h, time 3 day): 0.9 | ALP (72 h, time 3 day): 1701.8 IU/L | ALT (72 h, time 3 day): 40.4 IU/L | AST (72 h, time 3 day): 73.8 IU/L | BUN (72 h, time 3 day): 15.2 mg/dL | CRE (72 h, time 3 day): 0.2 mg/dL | Ca (72 h, time 3 day): 11.1 mg/dL | Cl (72 h, time 3 day): 106.4 meq/L | DBIL (72 h, time 3 day): 0.008 mg/dL | GLC (72 h, time 3 day): 178.4 mg/dL | IP (72 h, time 3 day): 6.8 mg/dL | K (72 h, time 3 day): 4.7 meq/L | LDH (72 h, time 3 day): 87.2 IU/L | Na (72 h, time 3 day): 141.6 meq/L | PL (72 h, time 3 day): 166 mg/dL | RALB (72 h, time 3 day): 2.6 g/dL | TBIL (72 h, time 3 day): 0.05 mg/dL | TC (72 h, time 3 day): 83 mg/dL | TG (72 h, time 3 day): 123.8 mg/dL | TP (72 h, time 3 day): 5.7 g/dL | gamma-GTP (72 h, time 3 day): 1 IU/L | TERMINAL_BW ([…], time 7 day): 283.2 g | TERMINAL_BW ([…], time 14 day): 331.1 g | TERMINAL_BW ([…], time 28 day): 426.4 g | APTT ([…], time 7 day): 18.9 s | Bas ([…], time 7 day): 0% | Eos ([…], time 7 day): 1.2% | Fbg ([…], time 7 day): 255.8 mg/dL | Hb ([…], time 7 day): 13.9 g/dL | Ht ([…], time 7 day): 41.1% | Lym ([…], time 7 day): 74.6% | MCH ([…], time 7 day): 21.1 pg | MCHC ([…], time 7 day): 33.9% | MCV ([…], time 7 day): 62.2 fL | Mono ([…], time 7 day): 2.2% | Neu ([…], time 7 day): 21.8% | PT ([…], time 7 day): 13.7 s | Plat ([…], time 7 day): 137 x10_4/uL | RBC ([…], time 7 day): 660.4 x10_4/ul | Ret ([…], time 7 day): 5.5% | WBC ([…], time 7 day): 92.6 x10_2/uL | APTT ([…], time 14 day): 21.8 s | Bas ([…], time 14 day): 0.2% | Eos ([…], time 14 day): 1% | Fbg ([…], time 14 day): 271.2 mg/dL | Hb ([…], time 14 day): 14.9 g/dL | Ht ([…], time 14 day): 43.7% | Lym ([…], time 14 day): 76% | MCH ([…], time 14 day): 20.9 pg | MCHC ([…], time 14 day): 34.2% | MCV ([…], time 14 day): 61.3 fL | Mono ([…], time 14 day): 2.2% | Neu ([…], time 14 day): 20.6% | PT ([…], time 14 day): 13.4 s | Plat ([…], time 14 day): 118 x10_4/uL | RBC ([…], time 14 day): 712.8 x10_4/ul | Ret ([…], time 14 day): 4.1% | WBC ([…], time 14 day): 104.6 x10_2/uL | APTT ([…], time 28 day): 19.5 s | Bas ([…], time 28 day): 0.4% | Eos ([…], time 28 day): 1.4% | Fbg ([…], time 28 day): 257.6 mg/dL | Hb ([…], time 28 day): 15.7 g/dL | Ht ([…], time 28 day): 45.3% | Lym ([…], time 28 day): 80.2% | MCH ([…], time 28 day): 19.8 pg | MCHC ([…], time 28 day): 34.6% | MCV ([…], time 28 day): 57.3 fL | Mono ([…], time 28 day): 2% | Neu ([…], time 28 day): 15.4% | PT ([…], time 28 day): 13.9 s | Plat ([…], time 28 day): 108.7 x10_4/uL | RBC ([…], time 28 day): 789.4 x10_4/ul | Ret ([…], time 28 day): 2.4% | WBC ([…], time 28 day): 118.6 x10_2/uL | KIDNEY_L ([…], time 7 day): 1.2 g | KIDNEY_R ([…], time 7 day): 1.2 g | KIDNEY_TOTAL ([…], time 7 day): 2.4 g | KIDNEY_L ([…], time 14 day): 1.3 g | KIDNEY_R ([…], time 14 day): 1.3 g | KIDNEY_TOTAL ([…], time 14 day): 2.6 g | KIDNEY_L ([…], time 28 day): 1.5 g | KIDNEY_R ([…], time 28 day): 1.5 g | KIDNEY_TOTAL ([…], time 28 day): 3 g | LIVER ([…], time 7 day): 13.1 g | LIVER ([…], time 14 day): 13.8 g | LIVER ([…], time 28 day): 16.2 g | A/G ([…], time 7 day): 0.8 | ALP ([…], time 7 day): 1932.2 IU/L | ALT ([…], time 7 day): 44.4 IU/L | AST ([…], time 7 day): 76.8 IU/L | BUN ([…], time 7 day): 16.6 mg/dL | CRE ([…], time 7 day): 0.2 mg/dL | Ca ([…], time 7 day): 10.9 mg/dL | Cl ([…], time 7 day): 105.4 meq/L | DBIL ([…], time 7 day): 0.006 mg/dL | GLC ([…], time 7 day): 187.8 mg/dL | IP ([…], time 7 day): 7 mg/dL | K ([…], time 7 day): 4.2 meq/L | LDH ([…], time 7 day): 79.6 IU/L | Na ([…], time 7 day): 143 meq/L | PL ([…], time 7 day): 158 mg/dL | RALB ([…], time 7 day): 2.6 g/dL | TBIL ([…], time 7 day): 0.046 mg/dL | TC ([…], time 7 day): 75 mg/dL | TG ([…], time 7 day): 113.6 mg/dL | TP ([…], time 7 day): 5.8 g/dL | gamma-GTP ([…], time 7 day): 1.2 IU/L | A/G ([…], time 14 day): 0.8 | ALP ([…], time 14 day): 1421.4 IU/L | ALT ([…], time 14 day): 40.4 IU/L | AST ([…], time 14 day): 71.2 IU/L | BUN ([…], time 14 day): 16.2 mg/dL | CRE ([…], time 14 day): 0.2 mg/dL | Ca ([…], time 14 day): 10.7 mg/dL | Cl ([…], time 14 day): 105.2 meq/L | DBIL ([…], time 14 day): 0.002 mg/dL | GLC ([…], time 14 day): 182.6 mg/dL | IP ([…], time 14 day): 6.9 mg/dL | K ([…], time 14 day): 4.3 meq/L | LDH ([…], time 14 day): 131.4 IU/L | Na ([…], time 14 day): 144.4 meq/L | PL ([…], time 14 day): 159 mg/dL | RALB ([…], time 14 day): 2.7 g/dL | TBIL ([…], time 14 day): 0.04 mg/dL | TC ([…], time 14 day): 72.4 mg/dL | TG ([…], time 14 day): 112.8 mg/dL | TP ([…], time 14 day): 6 g/dL | gamma-GTP ([…], time 14 day): 1 IU/L | A/G ([…], time 28 day): 0.8 | ALP ([…], time 28 day): 1126.4 IU/L | ALT ([…], time 28 day): 33.8 IU/L | AST ([…], time 28 day): 63.8 IU/L | BUN ([…], time 28 day): 16.6 mg/dL | CRE ([…], time 28 day): 0.3 mg/dL | Ca ([…], time 28 day): 10.7 mg/dL | Cl ([…], time 28 day): 104 meq/L | DBIL ([…], time 28 day): 0.006 mg/dL | GLC ([…], time 28 day): 180.2 mg/dL | IP ([…], time 28 day): 5.3 mg/dL | K ([…], time 28 day): 4.3 meq/L | LDH ([…], time 28 day): 69.8 IU/L | Na ([…], time 28 day): 142 meq/L | PL ([…], time 28 day): 162 mg/dL | RALB ([…], time 28 day): 2.8 g/dL | TBIL ([…], time 28 day): 0.042 mg/dL | TC ([…], time 28 day): 73.6 mg/dL | TG ([…], time 28 day): 186.6 mg/dL | TP ([…], time 28 day): 6.2 g/dL | gamma-GTP ([…], time 28 day): 1.2 IU/L

— ChEMBL document CHEMBL3885861, “Open TG-GATES”
